Source: US20230091671A1 (priority 2020, published 2023)
Counter-ions that a name gives are not always drawn.

Assays:
[1] = cited from earlier work
[2] = system: VC and laryngeal muscles/laryngospasm; conditions: rat model; cited from earlier work
[3] = target: T1, 1A subtype (α-1 adrenergic receptor) (Homo sapiens, UniProt P35348); conditions: cited from earlier work
T1 sequence (P35348 1-466): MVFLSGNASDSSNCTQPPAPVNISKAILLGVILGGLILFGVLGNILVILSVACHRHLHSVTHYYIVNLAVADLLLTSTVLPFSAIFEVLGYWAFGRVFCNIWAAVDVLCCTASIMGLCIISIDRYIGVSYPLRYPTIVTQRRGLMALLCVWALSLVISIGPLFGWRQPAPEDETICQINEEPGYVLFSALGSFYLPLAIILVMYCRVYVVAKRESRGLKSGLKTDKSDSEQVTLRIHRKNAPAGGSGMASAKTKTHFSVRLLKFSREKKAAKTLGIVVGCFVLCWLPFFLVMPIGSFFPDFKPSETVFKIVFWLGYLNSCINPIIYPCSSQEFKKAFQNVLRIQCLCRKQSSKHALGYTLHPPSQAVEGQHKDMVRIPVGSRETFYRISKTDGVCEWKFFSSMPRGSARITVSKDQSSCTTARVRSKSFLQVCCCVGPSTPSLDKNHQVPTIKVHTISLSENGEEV

[4] = cited from earlier work; remark: listed apart in the source
[5] = in vivo; cited from earlier work
[6] = target: T2, α1-AR 1D (Homo sapiens, UniProt P25100); assay type: binding
T2 construct: expressed in transfected cells; host or cells: HEK-293
T2 sequence (P25100 1-572): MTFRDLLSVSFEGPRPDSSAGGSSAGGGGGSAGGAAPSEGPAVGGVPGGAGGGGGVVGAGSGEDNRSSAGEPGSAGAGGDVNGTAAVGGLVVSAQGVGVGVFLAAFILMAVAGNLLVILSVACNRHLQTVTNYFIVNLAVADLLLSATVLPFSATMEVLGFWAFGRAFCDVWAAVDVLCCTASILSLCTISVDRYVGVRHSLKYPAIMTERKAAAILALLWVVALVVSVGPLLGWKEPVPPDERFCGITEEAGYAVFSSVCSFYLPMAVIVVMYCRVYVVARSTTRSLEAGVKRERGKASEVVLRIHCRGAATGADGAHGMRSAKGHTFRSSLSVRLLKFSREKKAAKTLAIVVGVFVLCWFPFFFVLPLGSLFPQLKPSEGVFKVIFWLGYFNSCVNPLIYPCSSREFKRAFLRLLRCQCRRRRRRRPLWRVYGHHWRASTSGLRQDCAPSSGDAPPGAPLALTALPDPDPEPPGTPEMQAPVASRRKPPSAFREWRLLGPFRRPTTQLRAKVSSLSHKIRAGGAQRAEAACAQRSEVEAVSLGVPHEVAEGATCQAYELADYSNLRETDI

[7] = subcutaneous injection of 10 mg
[8] = single intramuscular and intravenous doses
[9] = recommended single intravenous injection

For `COc1cc2nc(N3CCN(C(=O)C4CCCO4)CC3)nc(N)c2cc1OC.Cl` (racemic) [TERAZOSIN, (RS)-Piperazine,1-(4-amino-6,7-dimethoxy-2-quinazolinyl)-4-[(tetra-hydro-2-furanyl)carbonyl]-, monohydrochloride, dihydrate], the syncope ([1]; clinical test subjects) is listed as 0.6% and the postural hypotension ([1]; trial of 600 subjects) is listed as 4%.
In the case of `COc1cc2nc(N3CCN(C(=O)c4ccco4)CC3)nc(N)c2cc1OC.Cl` [PRAZOSIN, 1-(4-amino-6,7-dimethoxy-2-quinazolinyl)-4-(2-furoyl) piperazine], the “Syncope and symptoms of hypotension, share of subjects receiving” value ([1]; 1 mg BID/TID titrated up to 20 mg total QD) is listed as 6-12%.
In the case of `C=CCN1CC[C@]23c4c5ccc(O)c4O[C@H]2C(=O)CC[C@@]3(O)[C@H]1C5.Cl` [naloxone, 17-Allyl-4,5α-epoxy-3,14-dihydroxymorphinan-6-one hydrochloride], the “dose at which naloxone has an effect” value [2] is listed as greater than 0.8 mg/kg.
In the case of `CCOc1ccccc1OCCN[C@H](C)Cc1ccc(OC)c(S(N)(=O)=O)c1` [TAMSULOSIN, (-)-(R)-5-[2-[[2-(o-Ethoxyphenoxy)ethyl]amino]propyl]-2-methoxybenzenesulfon-amide, monohydrochloride], the “incidence of hypotension, syncope, vertigo” value ([1]; Dose (0.4-0.8 mg QD)) is listed as 0.2%-0.6% and the “greater binding affinity at the 1A subtype over other α-1 antagonists” value [3] is listed as 12-30 times.
In the case of `CC[C@@H]1C(=O)OC[C@@H]1Cc1cncn1C` [pilocarpine HCl], the salivation [4, 7] is listed as 1 L and the sweating [4, 7] is listed as 0.5 to 1.0 L.
For `CCC(=O)C(CC(C)N(C)C)(c1ccccc1)c1ccccc1` (stereo not drawn) [Methadone], the “metabolism (enzymes / pathway)” value [5] is listed as “CYP3A4, CYP2B6 and CYP2D6”.
In the case of `O=C(CCCN1CC=C(n2c(=O)[nH]c3ccccc32)CC1)c1ccc(F)cc1` [Droperidol, 1-[1-[3-(p-Fluorobenzoyl)propyl]-1,2,3,6-tetrahydro-4-pyridyl]-2-benzimidazolinone], the “duration of the tranquilizing and sedative effects” value ([4]; human, in vivo) is listed as “two to four hours”, the “persistence of alteration of alertness” value ([4]; human, in vivo) is listed as “as long as twelve hours” and the onset of action [4, 8] is listed as “three to ten minutes”. For the same compound, the “time until peak effect apparent” value [4, 8] was “up to thirty minutes”.
For `CN1CCC[C@H]1c1cccnc1` [Nicotine], the “crossing of the blood brain barrier” value [5] is given as “crosses the blood-brain barrier”, the “elimination half-life in the body” value [5] is given as “around two hours” and the half-life [5] is given as 1 to 2 h. The route of excretion [5] was “primarily excreted in urine” and the “time to reach the brain after inhalation” value [5] was 10 to 20 s.
For `CCN1CC(CCN2CCOCC2)C(c2ccccc2)(c2ccccc2)C1=O` (stereo not drawn) [Doxapram hydrochloride, 1-ethyl-4-[2-(4-morpholinyl)ethyl]-3,3-diphenyl-2-pyrrolidinone monohydrochloride, monohydrate], the duration of effect [4, 9] is listed as 5 to 12 min, the “onset of respiratory stimulation” value [4, 9] is listed as 20 to 40 s and the “time of peak effect” value [4, 9] is listed as 1 to 2 min.
For `C[C@H](Cc1cc2c(c(C(N)=O)c1)N(CCCO)CC2)NCCOc1ccccc1OCC(F)(F)F` [SILODOSIN, (3-Hydroxypropyl)-5-[(2R)-2-({2-[2-(2,2,2trifluoroethoxy)phenoxy]ethyl}amino)propyl]-2,3-dihydro-1H-indole-7-carboxamide], the “Dizziness and orthostatic hypotension” value ([1]; Study of 897 subjects, 8 mg QD) is given as 3% and the “subjects with syncope / subjects in study” value ([1]; Study of 897 subjects, 8 mg QD) is given as 1/897.
In the case of `NC[C@H](O)c1ccc(O)c(O)c1` [NE], the “affinity and potency at α1-AR 1D compared with other subtypes” value [6] was “highest affinity and potency”.
In the case of `COc1cc2nc(N(C)CCCNC(=O)C3CCCO3)nc(N)c2cc1OC.Cl` (racemic) [ALFUZOSIN, (R,S)-N-[3-[(4-amino-6,7-dimethoxy-2-quinazolinyl)methylamino]propyl]tetrahydro-2-furancarboxamide hydrochloride], the dizziness ([1]; clinical test subjects) is given as 6%, the hypotension ([1]; clinical test subjects) is given as 0.4% and the syncope ([1]; clinical test subjects) is given as 0.2%.
